In data set [1] the target is Albumin (Homo sapiens, UniProt P02768). The experiment in a line: Inhibition of Albumin (unknown origin) denaturation at 100 uM relative to control.
Data set [2] can be described thus: Cytotoxicity against human HFF cells assessed as cell growth inhibition by celltiter-glo assay. Type of data set: toxicity, cell-based.
The test system of data set [3] is BK polyomavirus. Kind of data set: Antiviral activity against BK polyomavirus MM infected in human HFF cells assessed as reduction in viral growth incubated for 7 days. It counts as functional, organism-based. As to conditions: Betapolyomavirus hominis, 168 h.
Data set [4] concerns Neurospora crassa. The experiment in a line: Antifungal activity against Neurospora crassa assessed as inhibition of fungal growth incubated for 48 hrs. Type of data set: functional.
Data set [5] concerns Kluyveromyces marxianus. The experiment in a line: Antifungal activity against Candida keyfer […] 410004 assessed as inhibition of fungal growth incubated for 48 hrs. It counts as functional.
The test system of data set [6] is Aspergillus niger. The experiment in a line: Antifungal activity against Aspergillus niger assessed as inhibition of fungal growth incubated for 48 hrs. It counts as functional.
The test system of data set [7] is Candida albicans. Kind of data set: Antifungal activity against Candida albicans NCPF 400034 assessed as inhibition of fungal growth incubated for 48 hrs. It counts as functional.
Data set [8] has as its system Cryptococcus neoformans. Kind of data set: Antifungal activity against Cryptococcus neoformans NCPF 250316 assessed as inhibition of fungal growth incubated for 48 hrs. Type of data set: functional.
Data set [9] relates to Kluyveromyces marxianus. The experiment in a line: Synergetic antifungal activity against Candida keyfer […] 410004 assessed as fractional inhibitory concentration index incubated for 24 hrs in the presence of amphotericin B by checkerboard microdilution method. It counts as functional.
Data set [10] concerns Pichia kudriavzevii. Kind of data set: Antifungal activity against Candida krusei ATCC 6358 assessed as reduction in fungal growth incubated for 24 hrs by CLSI based assay. Type of data set: functional.
The test system of data set [11] is Meyerozyma guilliermondii. Kind of data set: Antifungal activity against Meyerozyma guilliermondii assessed as reduction in fungal growth incubated for 24 hrs by CLSI based assay. Type of data set: functional.
Data set [12] relates to Candida albicans. Kind of data set: Antifungal activity against Candida albicans ATCC 10231 assessed as reduction in fungal growth incubated for 24 hrs by CLSI based assay. It counts as functional.
Data set [13] has as its system Kluyveromyces marxianus. Kind of data set: Antifungal activity against Candida kefyr assessed as reduction in fungal growth incubated for 24 hrs by CLSI based assay. Type of data set: functional.
In data set [14] the test system is Nakaseomyces glabratus. Kind of data set: Antifungal activity against Candida glabrata CBS138 assessed as reduction in fungal growth incubated for 24 hrs by CLSI based assay. It counts as functional.
In data set [15] the test system is Candida dubliniensis. Kind of data set: Antifungal activity against Candida dubliniensis CD36 assessed as reduction in fungal growth incubated for 24 hrs by CLSI based assay. Type of data set: functional.
Data set [16] deals with Candida tropicalis. Kind of data set: Antifungal activity against Candida tropicalis MYA-3404 assessed as reduction in fungal growth incubated for 24 hrs by CLSI based assay. It counts as functional.
The test system of data set [17] is Aorta. The experiment in a line: Vasorelaxant activity in rabbit aorta assessed as inhibition of phenylephrine-induced contraction. As to conditions: Oryctolagus cuniculus. It counts as functional, tissue-based.
Data set [18] relates to K562. The experiment in a line: Antiproliferative activity against human K562 cells assessed as inhibition of cell growth incubated for 72 hrs by MTT assay. It counts as functional, cell-based. As to conditions: K562, 72 h.
Data set [19] has as its system CEM-DNR. Kind of data set: Antiproliferative activity against human CEM-DNR cells assessed as inhibition of cell growth incubated for 72 hrs by MTT assay. Type of data set: functional, cell-based.
Data set [20] has as its system A549. The experiment in a line: Antiproliferative activity against human A549 cells assessed as inhibition of cell growth incubated for 72 hrs by MTT assay. It counts as functional, cell-based. As to conditions: A549, 72 h.
The subject of data set [21] is HCT-116. Kind of data set: Antiproliferative activity against human HCT-116 cells assessed as inhibition of cell growth incubated for 72 hrs by MTT assay. Type of data set: functional, cell-based. As to conditions: HCT-116, 72 h.
The test system of data set [22] is CCRF-CEM. The experiment in a line: Antiproliferative activity against human CCRF-CEM cells assessed as inhibition of cell growth incubated for 72 hrs by MTT assay. It counts as functional, cell-based.

pEC50, pIC50: −log10 of the molar value. Converted amounts (≈) assume the structure as drawn.

Experimental findings from ChEMBL document CHEMBL5532697, “Imidazopyrimidine: from a relatively exotic scaffold to an evolving structural motif in drug discovery” (RSC Med Chem, 2024) are described below.

Albumin, sequence (P02768 whole entry): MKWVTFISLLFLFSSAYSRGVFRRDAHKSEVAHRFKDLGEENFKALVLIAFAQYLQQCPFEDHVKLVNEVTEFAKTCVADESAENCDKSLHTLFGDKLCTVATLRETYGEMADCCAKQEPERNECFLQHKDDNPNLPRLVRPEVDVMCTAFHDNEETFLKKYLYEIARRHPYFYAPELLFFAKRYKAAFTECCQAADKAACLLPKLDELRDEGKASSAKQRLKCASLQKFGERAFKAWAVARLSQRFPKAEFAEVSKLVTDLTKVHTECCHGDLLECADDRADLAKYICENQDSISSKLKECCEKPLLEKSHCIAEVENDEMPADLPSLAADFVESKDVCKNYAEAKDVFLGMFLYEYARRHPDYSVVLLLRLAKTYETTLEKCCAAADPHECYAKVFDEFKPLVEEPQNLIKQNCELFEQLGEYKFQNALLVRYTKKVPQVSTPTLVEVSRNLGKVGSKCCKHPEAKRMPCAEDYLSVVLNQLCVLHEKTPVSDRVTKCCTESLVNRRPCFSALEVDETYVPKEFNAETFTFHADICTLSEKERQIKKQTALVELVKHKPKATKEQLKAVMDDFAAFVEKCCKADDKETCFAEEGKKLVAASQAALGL

As for `Clc1ccc(-c2cn3cccnc3n2)cc1`, in [1], at 100 µM the inhibition was 41.7%.
The compound `COc1ccc(-c2cn3cccnc3n2)cc1` came in with an inhibition at 100 µM in data set [1] of 40.9%.
With `Cc1ccc(-c2cn3cccnc3n2)cc1`, at 100 µM the inhibition in data set [1] was 82.9%.
Consider `CS(=O)(=O)C1=CN(Cc2ccccc2)C(=O)N2CCN=C12`, for which the 50% cytotoxic concentration (CC50) in data set [2] is > 150 µM. In addition, the negative logarithm of the EC50 (pEC50) in data set [3] is 6.18.
For `Cc1ccc(S(=O)(=O)C2=CN(c3ccccc3)C(=O)N3CCN=C23)cc1` the same measures were > 150 µM and 4.03.
On to `c1ccc([Se]Cc2cn3cccnc3n2)cc1`, for which the minimum inhibitory concentration (MIC) was 18 µg/mL (≈ 62.5 µM) in data set [4]; > 36 µg/mL in [5]; > 36 µg/mL in [6]; 36 µg/mL (≈ 125 µM) in data set [7]; > 36 µg/mL in data set [8]. Moreover, in data set [9], the “fractional inhibitory concentration index (FICI)” value came out at 3.6.
Regarding `O=C(c1ccc(Cl)cc1)c1cnc2ncccn12`, the MIC in [10] turned out to be 0.5 µg/mL (≈ 1.94 µM); in data set [11] it was 0.062 µg/mL (≈ 0.241 µM); in data set [12], 0.25 µg/mL (≈ 0.97 µM); in [13] it was 0.125 µg/mL (≈ 0.485 µM); in data set [14], 1 µg/mL (≈ 3.88 µM); in [15], 0.5 µg/mL (≈ 1.94 µM). Moreover, in data set [16], the MIC was determined as 0.031 µg/mL (≈ 0.12 µM).
`Nc1cc(N)nc(-c2nc(Cc3ccccc3F)c3ncccn23)n1`: the pIC50 in data set [17] was 5.98.
For `O=C(c1ccc(F)cc1)c1cnc2ncccn12`, the MIC is 0.5 µg/mL (≈ 2.07 µM) in data set [10]; 0.25 µg/mL (≈ 1.04 µM) in data set [11]; 0.062 µg/mL (≈ 0.257 µM) in data set [12]; 0.125 µg/mL (≈ 0.518 µM) in data set [13]; 0.031 µg/mL (≈ 0.129 µM) in data set [14]; 0.5 µg/mL (≈ 2.07 µM) in data set [15]. Besides, the MIC in data set [16] was 0.25 µg/mL (≈ 1.04 µM).
Turning to `Cc1ccc([Se]Cc2cn3cccnc3n2)cc1`, the MIC in data set [4] was 18.9 µg/mL (≈ 62.4 µM); in data set [5], 18.9 µg/mL (≈ 62.4 µM); in data set [6], > 37.8 µg/mL; in [7], > 37.8 µg/mL; in data set [8], > 36 µg/mL.
With `c1ccc(-c2ccc(-c3cn4cccnc4n3)cc2)cc1`, testing at 100 µM in data set [1] gave an inhibition of 96.4%.
`N#Cc1ccc(C(=O)c2cnc3ncccn23)cc1`: the MIC in data set [10] stood at 0.25 µg/mL (≈ 1.01 µM); in [11], 0.031 µg/mL (≈ 0.125 µM); in data set [12], 0.25 µg/mL (≈ 1.01 µM); in data set [13], 0.125 µg/mL (≈ 0.504 µM); in data set [14] it was 0.065 µg/mL (≈ 0.262 µM); in data set [15], 0.062 µg/mL (≈ 0.25 µM). In data set [16], the MIC was determined as 0.062 µg/mL (≈ 0.25 µM).
For `N#Cc1ccc(-c2c[nH]c(=O)n3ccnc23)cc1`, the pIC50 is 4.75 in data set [18]; 4.72 in [19]; 5.29 in data set [20]; 4.37 in data set [21]; 5.84 in [22].
With `O=C(c1ccccc1)c1cnc2ncccn12`, the minimal inhibitory concentration (MIC) was found to be 0.5 µg/mL (≈ 2.24 µM) in data set [10]; 0.062 µg/mL (≈ 0.278 µM) in data set [11]; 0.125 µg/mL (≈ 0.56 µM) in [12]; 0.125 µg/mL (≈ 0.56 µM) in [13]; 0.062 µg/mL (≈ 0.278 µM) in data set [14]; 0.062 µg/mL (≈ 0.278 µM) in [15]. The minimum inhibitory concentration (MIC) in data set [16] came to 0.5 µg/mL (≈ 2.24 µM).
In data set [1], `CCOC(=O)c1ccc(-c2cn3cccnc3n2)cc1` gave an inhibition at 100 µM of 54.2%.
Regarding `CS(=O)(=O)C1=CNC(=O)N2CCN=C12`, the CC50 in data set [2] is > 150 µM. Moreover, in [3], the negative-log EC50 (pEC50) is 4.65.
Take `Nc1nc(N)nc(-c2nc(Cc3ccccc3F)c3ncccn23)n1`: the negative logarithm of the IC50 (pIC50) in [17] was 6.67.
For `O=C(O)c1ccccc1Nc1c(Cl)cccc1Cl`, at 100 µM the inhibition in data set [1] was 84.7%.
For `O=c1[nH]cc(-c2ccc(-c3ccccc3)cc2)c2nccn12`, the pIC50 was 4.82 in [18], 5.55 in [19], 4.99 in data set [20] and 5.07 in data set [22].
In the case of `Cc1ccc(C(=O)c2cnc3ncccn23)cc1`, the MIC in data set [10] amounted to 0.5 µg/mL (≈ 2.11 µM); in [11] it was 0.062 µg/mL (≈ 0.261 µM); in data set [12] it was 0.12 µg/mL (≈ 0.506 µM); in [13] it was 0.5 µg/mL (≈ 2.11 µM); in data set [14], 0.062 µg/mL (≈ 0.261 µM); in [15] it was 0.25 µg/mL (≈ 1.05 µM). Also, the MIC in data set [16] was 0.25 µg/mL (≈ 1.05 µM).
As for `C[C@@H]1[C@H](O)[C@@H](C)/C=C/C=C/C=C/C=C/C=C/C=C/C=C/[C@H](O[C@@H]2O[C@H](C)[C@@H](O)[C@H](N)[C@@H]2O)C[C@@H]2O[C@](O)(C[C@@H](O)C[C@@H](O)[C@H](O)CC[C@@H](O)C[C@@H](O)CC(=O)O[C@H]1C)C[C@H](O)[C@H]2C(=O)O` [AMPHOTERICIN B], the minimal inhibitory concentration (MIC) was found to be 0.39 µg/mL (≈ 0.422 µM) in [4]; 12.5 µg/mL (≈ 13.5 µM) in data set [5]; 0.39 µg/mL (≈ 0.422 µM) in [6]; 0.78 µg/mL (≈ 0.844 µM) in data set [7]; 0.2 µg/mL (≈ 0.216 µM) in data set [8].
For `Nc1ccn(C[C@@H](CO)OCP(=O)(O)O)c(=O)n1` [CIDOFOVIR ANHYDROUS], the CC50 in data set [2] is > 150 µM. Also, the pEC50 in data set [3] was 6.62.
Regarding `CC(=O)N1CCN(c2ccc(OCC3COC(Cn4ccnc4)(c4ccc(Cl)cc4Cl)O3)cc2)CC1` (stereo not drawn) [KETOCONAZOLE], the MIC in data set [10] is 1 µg/mL (≈ 1.88 µM); in data set [11], 0.125 µg/mL (≈ 0.235 µM); in data set [12], 8 µg/mL (≈ 15.1 µM); in [13], 0.25 µg/mL (≈ 0.47 µM); in data set [14], 0.25 µg/mL (≈ 0.47 µM); in data set [15], 2 µg/mL (≈ 3.76 µM). Further, in [16], the MIC amounted to 2 µg/mL (≈ 3.76 µM).
